Reference: ChEMBL document CHEMBL6177923, “Novel rhodanine-thiazole hybrids as potential antidiabetic agents: a structure-based drug design approach” (RSC Med Chem, 2025)
Active and inactive are the calls of the source. The rule behind the calls is not given here.

Tests used:
[1] = target: Lysosomal alpha-glucosidase (Homo sapiens, UniProt P10253); assay: Inhibition of human lysosomal alpha-glucosidase preincubated for 10 mins followed by p-nitrophenyl-alpha-D glucopyranoside addition and measured after 30 mins by absorbance based analysis
L929 = assay: Cytotoxicity against mouse L929 cells by MTT assay; type: toxicity, cell-based
HepG2 = assay: Upregulation of PPAR-gamma expression in human HepG2 cells by RayBio PPAR-gamma TF activity assay; type: functional, cell-based; settings: dose 6.25-100 µM

SMILES | IC50 [1] [µM] | Activity (L929) | Activity (HepG2) | inhibition ([1]; time 40.0 min)
O=C(O)CN1C(=O)/C(=C/c2ccc(/C=N/Nc3nc(-c4ccc(Cl)cc4)cs3)cc2)SC1=S | 62.1 | Non-toxic |  | 
O=C(O)CN1C(=O)/C(=C/c2ccc(/C=N/Nc3nc(-c4ccc(Br)cc4)cs3)cc2)SC1=S | 24.2 | Non-toxic |  | 
Cc1ccc(-c2csc(N/N=C/c3ccc(/C=C4\SC(=S)NC4=O)cc3)n2)cc1 | 106 | Non-toxic |  | 
COc1ccc(-c2csc(N/N=C/c3ccc(/C=C4\SC(=S)NC4=O)cc3)n2)cc1 | 46 | Non-toxic |  | 
O=C1NC(=S)S/C1=C\c1ccc(/C=N/Nc2nc(-c3ccc(Br)cc3)cs2)cc1 | 32.2 | Non-toxic | Dose-dependent-effect | 
Cc1ccc(-c2csc(N/N=C/c3ccc(/C=C4\SC(=S)N(CC(=O)O)C4=O)cc3)n2)cc1 |  | Non-toxic |  | inactive
O=C1NC(=S)S/C1=C\c1ccc(/C=N/Nc2nc(-c3ccc(Cl)cc3)cs2)cc1 | 33.2 | Non-toxic | Dose-dependent-effect | 
O=C1NC(=S)S/C1=C\c1ccc(/C=N/Nc2nc(-c3ccc(F)cc3)cs2)cc1 | 148 | Non-toxic |  | 
O=C(O)CN1C(=O)/C(=C/c2ccc(/C=N/Nc3nc(-c4ccc(F)cc4)cs3)cc2)SC1=S | 52 | Non-toxic |  | 
O=C(O)CN1C(=O)/C(=C/c2ccc(/C=N/Nc3nc(-c4ccccc4)cs3)cc2)SC1=S | 29.1 | Non-toxic |  | 
O=C1NC(=S)S/C1=C\c1ccc(/C=N/Nc2nc(-c3ccccc3)cs2)cc1 | 55.2 | Non-toxic |  | 
COc1ccc(-c2csc(N/N=C/c3ccc(/C=C4\SC(=S)N(CC(=O)O)C4=O)cc3)n2)cc1 | 63.2 | Non-toxic |  | 
